Values of other authors in patent US11858951B2, “Boronic acid derivatives” (Merck Patent GmbH, priority 2017, dated 2024).

Biological target: LMP7 subunit of the immunoproteasome (Homo sapiens, UniProt P28062)
Conditions: background, Singh et al 2011; cited from earlier work

CC1=C(C(=O)N[C@H](C)C(=O)N[C@@H](Cc2c[nH]c3ccccc23)C(=O)N[C@@H](Cc2ccccc2)C(=O)[C@@]2(C)CO2)Cc2ccccc21 [PR-924]
selectivity for the LMP7 subunit of the immunoproteasome: 100 fold
